Data set [1] has as its system tamoxifen-resistant MCF7 breast cancer cells. Kind of data set: Proliferation of tamoxifen-resistant MCF7 cells. The class given is cell-based, human. Conditions: 6 days, cell numbers. How it is done:
resistant MCF7 cells. Cells were treated with NB-73 or trans-hydroxytamoxifen (OH-
Tam) for 6 days and cell numbers were monitored. Values are mean ± SD of three
(1 picture or pasted object on this page, not shown here)

For data set [2], the system named is FOXM1 target gene expression in MCF7 cells. Kind of data set: FOXM1 target gene expression by qRT-PCR. In kind it is cell-based, human. Conditions: MCF7, 24 h, compound at its IC50 for proliferation. How it is done:
Total RNA was isolated using TRIzol (Invitrogen) and reverse transcribed using […] reverse transcriptase (New England BioLabs). Real-time PCR was performed using SYBRgreen PCR Master Mix (Quantabio) as described.[15] Relative mRNA levels of genes were normalized to the housekeeping gene 36B4, and fold-change calculated relative to the vehicle treated samples. Results are the average ± SD from at least two independent experiments carried out in triplicate. Primer sequences for the genes studied were obtained from the Harvard Primer Bank. Sequences are available on their website.
(Quantitative PCR measures a nucleic acid by following its amplification.)

For data set [3], the system named is MCF7 cells. Kind of data set: RNA-Seq gene regulation in MCF7 cells. In kind it is cell-based, human. The following applies: MCF7, 9 h treatment, p < 0.05; FDI-6 20 µM. The procedure: (§1) For gene expression analysis, total RNA was extracted from cells using Trizol reagent and further cleaned using the Turbo DNase and RNAqueous kits (ThermoFisher). Cells were treated with Veh (0.1% EtOH), or with the compounds indicated for 9 h or 24 h. Once the sample quality and replicate reproducibility were verified, samples from each group were subjected to sequencing. RNA at a concentration of 100 ng/µl in nuclease-free water was used for library construction. cDNA libraries were prepared with the mRNA-TruSeq Kit (Illumina, Inc.). In brief, the poly-A containing mRNA was purified from total RNA, the RNA was fragmented, double-stranded cDNA was generated from fragmented RNA, and adapters were ligated to the ends.
The paired-end read data from the HiSeq 4000 were processed and analyzed through a series of steps. Base calling and de-multiplexing of samples within each lane were done with Casava 1.8.2. The RNA sequences were prepared with Illumina’s TruSeq Stranded mRNAseq Sample Prep kit. Reads were trimmed of adapters and low expression data using Trimmomatic version 0.38.[42] The STAR alignment tool version 2.5.3a was used to align the sequenced reads to the GRCh37 human genome from Ensembl.[43] Gene counts were calculated using subread version 1.5.2.[44],[45] The edgeR Bioconductor package in R was used for normalization and differential expression analysis. Default normalization methods were used, specifically trimmed mean of M values or TMM was used to calculate the normalized expression values. This method calculates the weighted trimmed mean of the log expression ratios in a gene-wise fashion.[46],[47] We considered genes with fold-change > 2 and p-value < 0.05 as statistically significant, differentially expressed.

For data set [4], the system named is FOXM1 target genes in MDA-MB-231 cells. Nature of the data set: RNA-Seq Gene Set Enrichment Analysis against FOXM1 target gene sets. Conditions: NB-73 […] 24 h, siFOXM1 25 nM 72 h. In kind it is cell-based, human. The procedure: as §1
The paired-end read data from the HiSeq 4000 were processed and analyzed through a series of steps. […] Reads were trimmed of adapters and low expression data using Trimmomatic version 0.38.[42] The STAR alignment tool version 2.5.3a was used to align the sequenced reads to the GRCh37 human genome from Ensembl.[43] Gene counts were calculated using subread version 1.5.2.[44],[45] […]
Gene Set Enrichment Analysis (GSEA)[48] was used for examination of our genome-wide expression profiles. Overrepresented gene ontology (GO) biological processes were determined by the web-based DAVID Bioinformatics Resources database.[49],[50] […]

In data set [5] the test system is MDA-MB-231 cells. Nature of the data set: Cell cycle analysis by flow cytometry. In kind it is cell-based, human. The following applies: synchronized, released 24 h, 1.5, 3.0, 4.5 µM. How it is done:
Cells were synchronized by double thymidine block prior to cell cycle analysis by Propidium Iodide (PI) staining. Briefly, the cells were blocked with 2 mM thymidine for 18 h, then released with fresh media for 8 h followed by re-blocking with thymidine for another 16 h. Following the second block, the cells were released with or without treatments with the NB compounds and cells were collected and fixed in 70% ethanol at the time points indicated. After alcohol fixation for 2 h, the cells were washed with cold 1XPBS followed by staining with 50 µg/ml PI solution in PBS with addition of 5 µg/ml RNAse A for at least 4 h. The cells were then analyzed by the Flow Cytometry analyzer BD LSR II for percentage of cells in G1/G0, S, and G2/M phases of the cell cycle.
(In general: Flow cytometry measures light scatter and fluorescence of single cells or particles in a stream.)

Data set [6] deals with MDA-MB-231 cells. Nature of the data set: Apoptosis by AnnexinV/propidium iodide flow cytometry. The class given is cell-based, human. Conditions: 1.5 or 3 µM, 24 h or 72 h. The procedure: (§2) The cells were analyzed for percentage of apoptotic cells following 24 h or 72 h of vehicle or compound treatment by staining with the Alexa Fluor® 488 Annexin V/Dead Cell Apoptosis Kit (Thermo Fisher) and flow cytometry according to the manufacturer’s protocol. Caspase activity in the cells after treatment with control vehicle or compounds was determined using the Caspase-Glo 3/7 Assay system (Promega) in a 96-well format following the manufacturer’s instructions. Supplementary Figs 6 and 7 exemplify the gating strategy used for the cell cycle and apoptosis flow cytometry analyses.

Data set [7] has as its system Caspase 3/7 activity. Nature of the data set: Caspase Glo 3/7 assay. In kind it is cell-based, human. Conditions: 1.5 or 3 µM, 24 h. How it is done: as §2
A short description of data set [8]: Pharmacokinetics in mice after single s.c. or oral dose. In kind it is in vivo, female CD1 mice. The following applies: for AUC / Cmax / half-life: female, CD1, mouse, 60 mg/kg, single dose, plasma.
Protocol: The pharmacokinetics of compounds were monitored after single dose administration into female CD1 mice (7–9 weeks of age) via s.c. injection or oral gavage, as described.[39] For s.c. injection, each compound was dissolved in DMSO and then mixed with corn oil for a total injection volume of 100 μL (10% DSMO + 90% corn oil) per mouse. For oral gavage, compounds were administered in a 200 µL formulation of 9/0.5/0.5/90 parts of PEG400/Tween80/Povidone/0.5% Carboxymethylcellulose in DI water. […] Compounds were quantified by LC-MS/MS at the University of Illinois Metabolomics Core Facility. The data were fitted to a non-compartment model.
For data set [9], the system named is DT22 breast tumor xenografts. Kind of data set: DT22 human breast tumor xenograft growth in NSG mice. In kind it is in vivo. The following applies: for tumor growth: DT22 tumors, NSG mice. How it is done:
For examination of the effects of compounds on breast tumor growth suppression, intact female NOD/SCID-gamma (NSG) mice were used as detailed previously.[39] DT-22 breast cancer cells (1 × 10^6 cells/mouse) were injected s.c. into the right axial mammary gland. Mice received s.c. injection or oral gavage daily or every second or third day as indicated, with vehicle or treatment compound, and tumor volume (length × width^2/2) was monitored over time.

Data set [10] relates to FOXM1-regulated genes in DT22 tumors. Nature of the data set: FOXM1-regulated gene expression in xenograft tumors by q-PCR. The class given is in vivo, NSG mice. The following applies: 10 mg/kg NB-73 s.c., end of treatment. An excerpt: Primer sequences for the genes studied were obtained from the Harvard Primer Bank. Sequences are available on their website.

As usually defined, the AUC is concentration integrated over time. A low value points to less exposure. What is called Cmax is the maximum level reached in the sampled fluid or tissue. Broadly, the half-life is how long it takes for the measured level to halve. A low value points to rapid decline. For the compound `C[N+]1(CCCCCCOc2ccc(C(=C3C4CC5CC(C4)CC3C5)c3ccc(OCCCCCC[N+]4(C)CCCCCC4)cc3)cc2)CCCCCC1` [NB-73], the “proliferation of tamoxifen-resistant MCF7 cells” value in data set [1] is “effectively suppressed the proliferation”. Besides, in data set [2], the “expression of ATF3, a gene suppressed by FOXM1” value was “increased expression of ATF3” and the “expression of FOXM1 stimulated target genes (FOXM1C, AURKB, CCNB1, PLK1)” value was “significantly reduced the expression”. Further, in data set [3], the “genes regulated more than 2-fold (Venn diagram)” value is 870 genes. In data set [4], the “normalized enrichment score (NES), FOXM1 target gene set” value is on record as -1.32. In data set [5], the “percent of cells in G2/M” value is “large increase in the percent of cells in G2/M” and the “percent of cells in S phase” value is given as “decrease in the percent of cells in S phase”. For the same compound, the “percent of apoptotic cells” value in data set [6] is given as “increased the percent of apoptotic cells”. The “caspase 3/7 activity” value in data set [7] is given as “increased”. The “blood levels of compound” value in data set [8] (after oral administration) was “only very low levels”. Further, the “blood levels of compound” value in [8] (after s.c. injection) is given as “very high blood levels”. Moreover, in data set [8] (oral), the AUC stood at 0.015 µM·h, the Cmax is 5.5 nM and the half-life is 40.3 h. In [8] (sc), this compound had an AUC of 158 µM·h, a Cmax of 5300 nM and a half-life of 31.4 h. Further, the tumor growth entry in [9] (5 mg/kg s.c. daily then every other day from day 21) is “reduced tumor growth”. For the same compound, the tumor growth result in data set [9] (10 mg/kg s.c. daily then every other day from day 21) is given as “more markedly suppressed growth”. In addition, the tumor growth result in data set [9] (s.c., 20 mg/kg every other day for 10 days then 10 mg/kg every other day) was “greatly suppress tumor growth”. The “tumor growth in vivo” value in [9] (low doses (2–20 mg/kg) s.c. daily or every other day) is on record as “greatly suppress tumor growth”. Besides, in data set [10], the “expression of FOXM1-regulated genes in tumors” value is listed as “greatly reduced”.
